Measured values as given in US20240059689A1, “PURINE DERIVATIVES AS ANTICANCER AGENTS” (Tango Therapeutics, Inc., priority 2021, published 2024).

Legend:
USP1-UAF1 = USP1-UAF1 (Homo sapiens, UniProt O94782); assay: Ubiquitin Rhodamine assay of USP1-UAF1 activity; type: biochemical
Experimental: Certain compounds of the disclosure were assessed for USP1-UAF1 activity in a Ubiquitin Rhodamine assay as described in Biology Example 1.

monoubiquitinated PCNA = assay: AlphaLISA assay measuring monoubiquitinated PCNA in MDA-MB-436; type: cell-based; conditions: Homo sapiens, MDA-MB-436, monoubiquitinated PCNA, read-out: Alpha Lisa IC50
Source text: Table 1 also indicates IC50 values for exemplary compounds in an AlphaLISA assay measuring monoubiquitinated PCNA in a BRCA1 mutant cell line (MDA-MB-436; column 7).

HCC1954 = assay: Viability assay, BRCA1 WT cell line HCC1954; type: cell-based; conditions: Homo sapiens, HCC1954, viability, read-out: HCC1954 rel IC50
Source text: (§1) Table 1 also indicates IC50 values in a viability assay for a non-isogenic pair of BRCA1 mutant (column 5-MDA-MB-436) and BRCA1 WT (column 6—HCC1954) cell lines. These values indicate the effect of treatment with compound on cell survival.

MDA-MB-436 = assay: Viability assay, BRCA1 mutant cell line MDA-MB-436; type: cell-based; conditions: Homo sapiens, MDA-MB-436, viability, BRCA1 mutant MDA-MB-436; read-out: MDA-MB-436 rel IC50
Source text: as §1

Sequence of USP1-UAF1 (O94782 whole entry): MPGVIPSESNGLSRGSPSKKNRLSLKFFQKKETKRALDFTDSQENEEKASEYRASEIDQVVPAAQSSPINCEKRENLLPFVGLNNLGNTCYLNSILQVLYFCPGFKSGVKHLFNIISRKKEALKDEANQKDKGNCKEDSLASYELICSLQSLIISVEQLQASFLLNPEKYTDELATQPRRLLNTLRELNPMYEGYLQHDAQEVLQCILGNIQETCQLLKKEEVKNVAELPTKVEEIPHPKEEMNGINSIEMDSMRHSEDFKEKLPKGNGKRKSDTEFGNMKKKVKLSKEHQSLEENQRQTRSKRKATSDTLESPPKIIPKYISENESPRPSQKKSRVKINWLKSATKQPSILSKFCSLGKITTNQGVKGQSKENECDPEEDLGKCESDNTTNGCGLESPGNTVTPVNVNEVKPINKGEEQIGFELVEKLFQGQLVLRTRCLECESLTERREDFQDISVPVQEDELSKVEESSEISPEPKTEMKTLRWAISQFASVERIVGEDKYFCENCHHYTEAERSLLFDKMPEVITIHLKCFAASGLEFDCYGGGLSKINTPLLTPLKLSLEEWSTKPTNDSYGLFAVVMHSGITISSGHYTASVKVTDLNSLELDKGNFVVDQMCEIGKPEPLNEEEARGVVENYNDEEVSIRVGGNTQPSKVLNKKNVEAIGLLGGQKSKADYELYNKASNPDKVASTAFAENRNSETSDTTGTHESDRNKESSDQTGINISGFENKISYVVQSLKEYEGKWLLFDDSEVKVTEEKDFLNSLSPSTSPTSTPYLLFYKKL
Sequence of USP1-UAF1 (Q8TAF3 whole entry partner): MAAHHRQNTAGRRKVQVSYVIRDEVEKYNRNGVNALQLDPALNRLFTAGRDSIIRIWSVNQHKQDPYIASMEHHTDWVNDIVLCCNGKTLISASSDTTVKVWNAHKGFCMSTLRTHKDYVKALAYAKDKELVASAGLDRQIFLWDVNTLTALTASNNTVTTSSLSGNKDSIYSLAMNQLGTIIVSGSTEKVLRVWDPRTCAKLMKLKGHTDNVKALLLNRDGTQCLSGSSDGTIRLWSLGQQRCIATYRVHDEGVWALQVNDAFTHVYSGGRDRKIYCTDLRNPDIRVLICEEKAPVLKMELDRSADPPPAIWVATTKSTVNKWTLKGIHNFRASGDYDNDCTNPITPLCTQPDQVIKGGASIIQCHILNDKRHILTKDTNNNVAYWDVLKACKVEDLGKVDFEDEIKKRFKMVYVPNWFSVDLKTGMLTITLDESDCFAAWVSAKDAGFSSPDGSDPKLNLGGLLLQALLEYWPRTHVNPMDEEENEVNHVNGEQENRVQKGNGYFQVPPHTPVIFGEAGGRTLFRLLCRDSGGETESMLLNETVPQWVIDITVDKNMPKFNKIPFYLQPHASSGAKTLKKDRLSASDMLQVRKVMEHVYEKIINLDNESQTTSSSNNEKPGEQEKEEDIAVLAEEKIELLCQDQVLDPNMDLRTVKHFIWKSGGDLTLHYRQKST

IC50 (USP1-UAF1) [nM]	IC50 (monoubiquitinated PCNA) [nM]	IC50 (HCC1954) [nM]	IC50 (MDA-MB-436) [nM]	SMILES
30 to 100	< 100	≥ 10000	< 100	CCn1cc(C(F)(F)F)nc1-c1ccc(Cn2c(=N)n(CC(F)(F)F)c3cnc(-c4c(OC)ncnc4C4CC4)nc32)cc1 [Example T-132]
100 to 10000	250 to 10000	≥ 10000	100 to 250	COCCn1c(=N)n(Cc2ccc(-c3nc(C(F)(F)F)cn3C)cc2)c2nc(-c3c(OC)ncnc3C3CC3)ncc21 [Example T-134, 2-(4-cyclopropyl-6-methoxy-pyrimidin-5-yl)-7-(2-methoxyethyl)-9-[[4-[1-methyl-4-(trifluoromethyl)imidazol-2-yl]phenyl]methyl]purin-8-imine]
30 to 100	100 to 250	≥ 10000	< 100	[2H]C([2H])([2H])Oc1ncnc(C2CC2)c1-c1ncc2c(n1)n(Cc1ccc(-c3nc(C(F)(F)F)cn3C(C)C)cc1)c(=N)n2CC(F)(F)F [Example T-135, 2-[4-cyclopropyl-6-(trideuteriomethoxy)pyrimidin-5-yl]-9-[[4-[1-isopropyl-4-(trifluoromethyl)imidazol-2-yl]phenyl]methyl]-7-(2,2,2-trifluoroethyl)purin-8-imine]
30 to 100	100 to 250	≥ 10000	100 to 250	COc1ccnc(C2CC2)c1-c1ncc2c(n1)n(Cc1ccc(-n3nc(C(F)(F)F)cc3OC)cc1)c(=N)n2CC(F)(F)F [Example T-136, 2-(2-cyclopropyl-4-methoxy-3-pyridyl)-9-[[4-[5-methoxy-3-(trifluoromethyl)pyrazol-1-yl]phenyl]methyl]-7-(2,2,2-trifluoroethyl)purin-8-imine]
100 to 10000	100 to 250	≥ 10000	100 to 250	COc1ncnc(C2(C)CC2)c1-c1ncc2c(n1)n(Cc1ccc(-c3nc(C(F)(F)F)cn3C)cc1)c(=N)n2CC(F)(F)F [Example T-137, 2-[4-methoxy-6-(1-methylcyclopropyl)pyrimidin-5-yl]-9-[[4-[1-methyl-4-(trifluoromethyl)imidazol-2-yl]phenyl]methyl]-7-(2,2,2-trifluoroethyl)purin-8-imine]
30 to 100	100 to 250	250 to 10000	100 to 250	CCOc1cc(C(F)(F)F)nn1-c1ccc(Cn2c(=N)n(CC(F)(F)F)c3cnc(-c4c(C(F)(F)F)cnn4C)nc32)cc1 [Example T-138, 9-[[4-[5-ethoxy-3-(trifluoromethyl)pyrazol-1-yl]phenyl]methyl]-2-[2-methyl-4-(trifluoromethyl)pyrazol-3-yl]-7-(2,2,2-trifluoroethyl)purin-8-imine]
30 to 100	< 100	≥ 10000	< 100	CCn1c(=N)n(Cc2ccc(-c3nc(C(F)(F)F)cn3C)cc2)c2nc(-c3c(OC)ncnc3C3CC3)ncc21 [Example T-139, 2-(4-cyclopropyl-6-methoxy-pyrimidin-5-yl)-7-ethyl-9-[[4-[1-methyl-4-(trifluoromethyl)imidazol-2-yl]phenyl]methyl]purin-8-imine]
30 to 100	< 100	≥ 10000	< 100	Cn1cc(C(F)(F)F)nc1-c1ccc(Cn2c(=N)n(C)c3cnc(-c4c(OC(F)(F)F)ccnc4C4CC4)nc32)cc1 [Example T-140, 2-[2-cyclopropyl-4-(trifluoromethoxy)-3-pyridyl]-7-methyl-9-[[4-[1-methyl-4-(trifluoromethyl)imidazol-2-yl]phenyl]methyl]purin-8-imine]
100 to 10000	100 to 250	≥ 10000	100 to 250	COc1nccc(C2CC2)c1-c1ncc2c(n1)n(Cc1ccc(-c3nc(C(F)(F)F)cn3C)cc1)c(=N)n2CC(F)(F)F [Example T-141, 2-(4-cyclopropyl-2-methoxy-3-pyridyl)-9-[[4-[1-methyl-4-(trifluoromethyl)imidazol-2-yl]phenyl]methyl]-7-(2,2,2-trifluoroethyl)purin-8-imine]
100 to 10000	100 to 250	≥ 10000	100 to 250	COc1ncnc(C2CC2)c1-c1ncc2c(n1)n([C@@H](C)c1ccc(-c3nc(C(F)(F)F)cn3C)cc1)c(=N)n2C [Example T-142, 2-(4-cyclopropyl-6-methoxy-pyrimidin-5-yl)-7-methyl-9-[(1S)-1-[4-[1-methyl-4-(trifluoromethyl)imidazol-2-yl]phenyl]ethyl]purin-8-imine]
30 to 100	< 100	≥ 10000	< 100	COc1ncnc(C2CC2)c1-c1ncc2c(n1)n([C@H](C)c1ccc(-c3nc(C(F)(F)F)cn3C)cc1)c(=N)n2CC(F)(F)F [Example T-143, (R)-2-(4-cyclopropyl-6-methoxypyrimidin-5-yl)-9-(1-(4-(1-methyl-4-(trifluoromethyl)-1H-imidazol-2-yl)phenyl)ethyl)-7-(2,2,2-trifluoroethyl)-7,9-dihydro-8H-purin-8-imine]
30 to 100	100 to 250	≥ 10000	100 to 250	COc1ncnc(C(F)(F)F)c1-c1ncc2c(n1)n(Cc1ccc(-c3nc(C(F)(F)F)cn3C)cc1)c(=N)n2CC(F)(F)F [Example T-144, 2-[4-methoxy-6-(trifluoromethyl)pyrimidin-5-yl]-9-[[4-[1-methyl-4-(trifluoromethyl)imidazol-2-yl]phenyl]methyl]-7-(2,2,2-trifluoroethyl)purin-8-imine]
30 to 100	< 100	250 to 10000	100 to 250	COc1ncnc(C(F)(F)F)c1-c1ncc2c(n1)n(Cc1ccc(-n3nc(C(F)(F)F)cc3OC)cc1)c(=N)n2CC(F)(F)F [Example T-145, 9-[[4-[5-methoxy-3-(trifluoromethyl)pyrazol-1-yl]phenyl]methyl]-2-[4-methoxy-6-(trifluoromethyl)pyrimidin-5-yl]-7-(2,2,2-trifluoroethyl)purin-8-imine]
30 to 100	< 100	≥ 10000	< 100	COc1nc(C)nc(C2CC2)c1-c1ncc2c(n1)n(Cc1ccc(-c3nc(C(F)(F)F)cn3C)cc1)c(=N)n2C [Example T-146, 2-(4-cyclopropyl-6-methoxy-2-methyl-pyrimidin-5-yl)-7-methyl-9-[[4-[1-methyl-4-(trifluoromethyl)imidazol-2-yl]phenyl]methyl]purin-8-imine]
30 to 100	< 100	≥ 10000	100 to 250	Cn1cc(C(F)(F)F)nc1-c1ccc(Cn2c(=N)n(CC(F)(F)F)c3cnc(-c4c(OCF)ncnc4C4CC4)nc32)cc1 [Example T-147, 2-[4-cyclopropyl-6-(fluoromethoxy)pyrimidin-5-yl]-9-[[4-[1-methyl-4-(trifluoromethyl)imidazol-2-yl]phenyl]methyl]-7-(2,2,2-trifluoroethyl)purin-8-imine]
